The results in this text go back to US20250304576A1 (Cancer Research Technology Limited, priority 2022, published 2025).

A value given as a limit tells only on which side of the number the result lay.

The target of one assay is T1, Recombinant IKKβ (Homo sapiens, UniProt O14920).
T1 construct: purchased Millipore, Dundee, UK
T1 sequence (O14920 1-756): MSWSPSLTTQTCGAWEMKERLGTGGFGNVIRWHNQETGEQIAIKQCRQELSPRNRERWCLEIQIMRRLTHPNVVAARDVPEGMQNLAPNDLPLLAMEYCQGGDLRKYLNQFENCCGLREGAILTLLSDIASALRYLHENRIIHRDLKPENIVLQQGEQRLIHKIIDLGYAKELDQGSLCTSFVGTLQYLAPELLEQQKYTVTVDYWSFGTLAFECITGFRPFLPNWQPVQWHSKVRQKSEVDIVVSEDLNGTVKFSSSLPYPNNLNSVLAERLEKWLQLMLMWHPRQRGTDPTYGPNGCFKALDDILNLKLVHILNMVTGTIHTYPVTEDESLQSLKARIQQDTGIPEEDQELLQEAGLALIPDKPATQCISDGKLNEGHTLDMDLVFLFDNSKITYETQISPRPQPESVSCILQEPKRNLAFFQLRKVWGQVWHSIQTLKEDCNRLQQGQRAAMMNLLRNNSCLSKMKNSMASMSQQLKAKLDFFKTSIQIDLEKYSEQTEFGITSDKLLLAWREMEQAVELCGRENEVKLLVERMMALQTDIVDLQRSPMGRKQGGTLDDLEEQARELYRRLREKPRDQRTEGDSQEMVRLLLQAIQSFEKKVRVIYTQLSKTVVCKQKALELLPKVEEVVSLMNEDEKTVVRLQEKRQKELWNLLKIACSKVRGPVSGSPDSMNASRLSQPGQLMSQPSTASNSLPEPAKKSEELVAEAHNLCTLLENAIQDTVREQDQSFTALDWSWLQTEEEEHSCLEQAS
The assay is described as follows: DELFIA IKKβ kinase assay (apparent Ki, Cheng-Prusoff). In kind it is biochemical. Particulars: DELFIA assay (first line of an example). The method in brief: (§1)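 Recombinant IKKα or IKKβ (37 nM) with 0.375 μM biotinylated IκB-α (Ser32) peptide and 40 μM ATP in 40 mM Tris-HCl pH 7.5, 20 mM MgCl2, 60 min at 30° C. Phospho-substrate captured on streptavidin and detected by anti-phospho-IκB-α plus europium anti-mouse IgG time-resolved fluorescence; apparent Ki via Cheng-Prusoff.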

The target in another assay is T2, Recombinant IKKα (Homo sapiens, UniProt O15111).
T2 construct: purchased Millipore, Dundee, UK
T2 sequence (O15111 1-745): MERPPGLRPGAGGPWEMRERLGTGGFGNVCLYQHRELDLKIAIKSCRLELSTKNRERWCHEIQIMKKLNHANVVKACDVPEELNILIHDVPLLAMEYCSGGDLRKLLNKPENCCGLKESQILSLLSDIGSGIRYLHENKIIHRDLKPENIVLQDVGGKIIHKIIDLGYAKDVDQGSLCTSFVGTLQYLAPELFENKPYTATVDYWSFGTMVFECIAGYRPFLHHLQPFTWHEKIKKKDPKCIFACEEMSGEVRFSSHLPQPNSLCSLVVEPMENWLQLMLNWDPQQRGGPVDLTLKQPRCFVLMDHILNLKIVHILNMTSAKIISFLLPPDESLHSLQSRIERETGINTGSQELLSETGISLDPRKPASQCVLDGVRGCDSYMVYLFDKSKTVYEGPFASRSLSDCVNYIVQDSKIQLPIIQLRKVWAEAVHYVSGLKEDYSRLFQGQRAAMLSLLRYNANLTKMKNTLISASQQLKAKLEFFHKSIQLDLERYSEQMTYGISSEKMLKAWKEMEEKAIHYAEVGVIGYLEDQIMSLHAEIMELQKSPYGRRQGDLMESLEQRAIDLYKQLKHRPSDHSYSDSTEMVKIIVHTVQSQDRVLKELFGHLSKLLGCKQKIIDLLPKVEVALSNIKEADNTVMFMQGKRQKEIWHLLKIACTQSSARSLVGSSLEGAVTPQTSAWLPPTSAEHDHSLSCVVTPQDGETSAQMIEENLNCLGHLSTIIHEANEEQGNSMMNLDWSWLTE
Put plainly: DELFIA IKKα kinase assay (apparent Ki, Cheng-Prusoff). In kind it is biochemical. The settings on record: DELFIA assay (first line of an example). An outline of the steps:
as §1

For `COCCNC(=O)c1cc2c(-c3ccc4[nH]nc(N)c4c3)ccnc2[nH]1` [Example 240, 4-(3-Amino-1H-indazol-5-yl)-N-(2-methoxyethyl)-1H-pyrrolo[2,3-b]pyridine-2-carboxamide], the Ki came to 30 nM at Recombinant IKKβ and 5 nM at Recombinant IKKα.

As to `NCCNC(=O)c1cc2c(-c3ccc4[nH]nc(N)c4c3)ccnc2[nH]1` [Example 241, 4-(3-Amino-1H-indazol-5-yl)-N-(2-aminoethyl)-1H-pyrrolo[2,3-b]pyridine-2-carboxamide], the Ki came out at 122 nM at Recombinant IKKβ and 4 nM on Recombinant IKKα.

Take `CN(C)CCNC(=O)c1cc2c(-c3ccc4[nH]nc(N)c4c3)ccnc2[nH]1` [Example 242, 4-(3-Amino-1H-indazol-5-yl)-N-(2-(dimethylamino)ethyl)-1H-pyrrolo[2,3-b]pyridine-2-carboxamide]: the Ki stood at 377 nM on Recombinant IKKβ and 8 nM at Recombinant IKKα.

As to `Nc1n[nH]c2ccc(-c3ccnc4[nH]c(C(=O)NCCN5CCCCC5)cc34)cc12` [Example 244, 4-(3-Amino-1H-indazol-5-yl)-N-(2-(piperidin-1-yl)ethyl)-1H-pyrrolo[2,3-b]pyridine-2-carboxamide], the Ki at Recombinant IKKβ was determined as 109 nM; on Recombinant IKKα, 8 nM.

As for `CCCCN(CC)CCNC(=O)c1cc2c(-c3ccc4[nH]nc(N)c4c3)ccnc2[nH]1` [Example 245, 4-(3-Amino-1H-indazol-5-yl)-N-(2-(butyl(ethyl)amino)ethyl)-1H-pyrrolo[2,3-b]pyridine-2-carboxamide], the Ki at Recombinant IKKβ was 193 nM; at Recombinant IKKα it was 29 nM.

Regarding `CC(C)N(CCNC(=O)c1cc2c(-c3ccc4[nH]nc(N)c4c3)ccnc2[nH]1)C(C)C` [Example 246, 4-(3-Amino-1H-indazol-5-yl)-N-(2-(diisopropylamino)ethyl)-1H-pyrrolo[2,3-b]pyridine-2-carboxamide], the Ki at Recombinant IKKβ came out at 104 nM; at Recombinant IKKα, 9 nM.

Regarding `CN(C)CCCNC(=O)c1cc2c(-c3ccc4[nH]nc(N)c4c3)ccnc2[nH]1` [Example 247, 4-(3-Amino-1H-indazol-5-yl)-N-(3-(dimethylamino)propyl)-1H-pyrrolo[2,3-b]pyridine-2-carboxamide], the figures for the Ki at Recombinant IKKβ and on Recombinant IKKα were 46 nM and 8 nM, respectively.

In the case of `CC(C)CCNCc1cc2c(-c3ccc4[nH]nc(N)c4c3)ccnc2[nH]1` [Example 249, 5-(2-((Isopentylamino)methyl)-1H-pyrrolo[2,3-b]pyridine-4-yl)-1H-indazol-3-amine], the Ki worked out at 1470 nM on Recombinant IKKβ and 56 nM on Recombinant IKKα.

For the molecule `Nc1n[nH]c2ccc(-c3ccnc4[nH]c(CNc5ccccc5)cc34)cc12` [Example 252, 5-(2-((Phenylamino)methyl)-1H-pyrrolo[2,3-b]340yridine-4-yl)-1H-indazol-3-amine], the Ki amounted to 59 nM at Recombinant IKKβ and 6 nM on Recombinant IKKα.

As to `Nc1n[nH]c2ccc(-c3ccnc4[nH]c(CNc5ccccc5COc5ccccc5)cc34)cc12` [Example 253, 5-(2-(((2-(Benzyloxy)phenyl)amino)methyl)-1H-pyrrolo[2,3-b]342yridine-4-yl)-1H-indazol-3-amine], the Ki at Recombinant IKKβ amounted to 330 nM; on Recombinant IKKα, 5 nM.

In the case of `COCCNCc1cc2c(-c3ccc4[nH]nc(N)c4c3)ccnc2[nH]1` [Example 254, 5-(2-(((2-Methoxyethyl)amino)methyl)-1H-pyrrolo[2,3-b]343yridine-4-yl)-1H-indazol-3-amine], the Ki at Recombinant IKKβ came out at 389 nM; on Recombinant IKKα, 18 nM.

Take `CN(C)CCNCc1cc2c(-c3ccc4[nH]nc(N)c4c3)ccnc2[nH]1` [Example 255, N^1-((4-(3-Amino-1H-indazol-5-yl)-1H-pyrrolo[2,3-b]pyridin-2-yl)methyl)-N2,N2-dimethylethane-1,2-diamine]: the Ki at Recombinant IKKβ amounted to 1630 nM; at Recombinant IKKα, 30 nM.

Consider `COCCCNCc1cc2c(-c3ccc4[nH]nc(N)c4c3)ccnc2[nH]1` [Example 256, 5-(2-(((3-methoxypropyl)amino)methyl)-1H-pyrrolo[2,3-b]pyridine-4-yl)-1H-indazol-3-amine], for which the figures for the Ki on Recombinant IKKβ and at Recombinant IKKα were 2560 nM and 46 nM, respectively.

On to `CC(C)OCCCNCc1cc2c(-c3ccc4[nH]nc(N)c4c3)ccnc2[nH]1` [Example 257, 5-(2-(((3-Isopropoxypropyl)amino)methyl)-1H-pyrrolo[2,3-b]346yridine-4-yl)-1H-indazol-3-amine], for which the Ki stood at 2220 nM at Recombinant IKKβ and 40 nM on Recombinant IKKα.

In the case of `CC(C)(C)N1CCN(Cc2cc3c(-c4ccc5[nH]nc(N)c5c4)ccnc3[nH]2)CC1` [Example 264, 5-(2-((4-(tert-Butyl)piperazin-1-yl)methyl)-1H-pyrrolo[2,3-b]pyridin-4-yl)-1H-indazol-3-amine], the Ki on Recombinant IKKβ stood at 285 nM; on Recombinant IKKα it was 5 nM.

For `Nc1n[nH]c2ccc(-c3ccnc4[nH]c(CCCNC5CCCCC5)cc34)cc12` [Example 270, 5-(2-(3-(Cyclohexylamino)propyl)-1H-pyrrolo[2,3-b]pyridin-4-yl)-1H-indazol-3-amine], the results for the Ki at Recombinant IKKβ and at Recombinant IKKα were 65 nM and 4 nM, respectively.

Consider `Nc1n[nH]c2ccc(-c3ccnc4[nH]c(CC5CCN(Cc6ccccc6)CC5)cc34)cc12` [Example 273, 5-(2-((1-benzylpiperidin-4-yl)methyl)-1H-pyrrolo[2,3-b]pyridin-4-yl)-1H-indazol-3-amine], for which the values for the Ki at Recombinant IKKβ and on Recombinant IKKα were 200 nM and 5 nM, respectively.

`Nc1n[nH]c2c(Cl)cc(-c3ccnc4[nH]c(C(=O)NCCN5CCCCC5)cc34)cc12` [Example 274, 4-(3-Amino-7-chloro-1H-indazol-5-yl)-N-(2-(piperidin-1-yl)ethyl)-1H-pyrrolo[2,3-b]pyridine-2-carboxamide]: the figures for the Ki at Recombinant IKKβ and at Recombinant IKKα were 126 nM and 8 nM, respectively.

In the case of `Nc1n[nH]c2c(Cl)cc(-c3ccnc4[nH]c(CC5CCCCC5)cc34)cc12` [Example 275, 7-Chloro-5-(2-(cyclohexylmethyl)-1H-pyrrolo[2,3-b]pyridin-4-yl)-1H-indazol-3-amine], the Ki came to 376 nM at Recombinant IKKβ and 37 nM on Recombinant IKKα.

On to `Nc1n[nH]c2c(Cl)cc(-c3ccnc4[nH]c(CN5CCOCC5)cc34)cc12` [Example 276, 7-Chloro-5-(2-(morpholinomethyl)-1H-pyrrolo[2,3-b]pyridin-4-yl)-1H-indazol-3-amine], for which the Ki on Recombinant IKKβ stood at 70 nM; on Recombinant IKKα, 4 nM.

For the molecule `Nc1n[nH]c2c(Cl)cc(-c3ccnc4[nH]c(CCN5CCOCC5)cc34)cc12` [Example 277, 7-Chloro-5-(2-(2-morpholinoethyl)-1H-pyrrolo[2,3-b]pyridin-4-yl)-1H-indazol-3-amine], the figures for the Ki on Recombinant IKKβ and at Recombinant IKKα were 51 nM and 1 nM, respectively.

For `CC(C)(C)C#Cc1cc(-c2ccnc3[nH]c(CC4CCCCC4)cc23)cc2c(N)n[nH]c12` [Example 278, 5-(2-(Cyclohexylmethyl)-1H-pyrrolo[2,3-b]pyridin-4-yl)-7-(3,3-dimethylbut-1-yn-1-yl)-1H-indazol-3-amine], the Ki is > 10000 nM at Recombinant IKKβ and 380 nM on Recombinant IKKα.

For `CC(C)(C)C#Cc1cc(-c2ccnc3[nH]c(CCN4CCOCC4)cc23)cc2c(N)n[nH]c12` [Example 280, 7-(3,3-Dimethylbut-1-yn-1-yl)-5-(2-(2-morpholinoethyl)-1H-pyrrolo[2,3-b]pyridin-4-yl)-1H-indazol-3-amine], the figures for the Ki at Recombinant IKKβ and on Recombinant IKKα were 360 nM and 30 nM, respectively.
